The target of assay [1] is human DGKα (Homo sapiens (Human), UniProt P23743). The experiment in a line: DGKα Biochemical Activity Assay (ADP-Glo). Particulars: recombinant DGKα 1 nM, 100 μM ATP, 18:1 DAG/POPS/octylglucoside micelles, 1 hour at 25° C.; geometric mean; read-out: HTBS DGKa 1X ATP KM IC50. From the text: Alternatively, the enzymatic activity of human DGKα was monitored in a biochemical assay in the presence or absence of compounds and using micelles containing 18:1 Diacylglycerol (DAG), 16:0-18:1 PS (POPS) and Octylglucoside as substrate. DGKα activity led to conversion of DAG and ATP to Phosphatidic Acid (PA) and ADP. Levels of ADP were monitored by bioluminescence using the ADP-Glo Kinase Assay (Promega) and were indicative of DGKα activity.
Sequence of human DGKα (P23743 whole entry): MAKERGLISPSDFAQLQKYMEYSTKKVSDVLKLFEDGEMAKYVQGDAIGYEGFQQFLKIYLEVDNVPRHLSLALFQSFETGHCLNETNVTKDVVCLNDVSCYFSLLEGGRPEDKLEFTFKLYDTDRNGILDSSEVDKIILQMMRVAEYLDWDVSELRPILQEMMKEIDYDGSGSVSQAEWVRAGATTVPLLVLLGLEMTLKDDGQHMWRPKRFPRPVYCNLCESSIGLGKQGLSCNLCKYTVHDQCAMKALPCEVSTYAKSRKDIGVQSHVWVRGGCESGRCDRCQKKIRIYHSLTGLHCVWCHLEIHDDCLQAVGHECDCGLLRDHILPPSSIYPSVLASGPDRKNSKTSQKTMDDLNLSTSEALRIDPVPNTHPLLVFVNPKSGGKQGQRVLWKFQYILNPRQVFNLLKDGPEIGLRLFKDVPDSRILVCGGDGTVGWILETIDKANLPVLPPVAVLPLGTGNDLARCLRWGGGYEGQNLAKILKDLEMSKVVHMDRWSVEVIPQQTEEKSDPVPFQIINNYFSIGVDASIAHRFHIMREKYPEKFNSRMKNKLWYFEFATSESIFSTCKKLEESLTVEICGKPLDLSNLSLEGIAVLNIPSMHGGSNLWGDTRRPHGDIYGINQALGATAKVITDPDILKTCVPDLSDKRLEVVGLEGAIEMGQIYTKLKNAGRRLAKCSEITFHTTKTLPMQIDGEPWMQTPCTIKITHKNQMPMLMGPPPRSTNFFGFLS
Ten nanoliters of test compound dissolved in DMSO at various concentrations were dispensed into a 384-well low volume nonbinding service white plates (Corning #3824) using a Labcyte Echo instrument. Recombinant DGKα (Carna Biosciences) in assay buffer (5 μL in 50 mM MOPS [3-(N-morpholino) propanesulfonic acid], pH 7.2; 0.0025% Triton X-100; 1 mM dithiothreitol; 5 mM MgCl2, 200 μM ATP) was added to the compound-containing plate and was incubated for 15 minutes at 25° C. A substrate solution (5 μL in 1.7 mM 1,2-dioleoyl-sn-glycerol [18:1 DAG], 13.5 mM 1-palmitoyl-2-oleoyl-sn-glycero-3-phospho-L-serine [16:0-18:1 PS](POPS), 2 μM CaCl2, 100 mM Octylglucoside (OG), 1 mM DTT) (obtained from Carna Biosciences) diluted in DGK ALPHA assay buffer was then added to start the reaction. Final concentrations were 1 nM DGKα, 100 μM ATP, 1 μM calcium chloride, 0.85 mM 1,2-dioleoyl-sn-glycerol (18:1 DAG), 6.75 mM 1-palmitoyl-2-oleoyl-sn-glycero-3-phospho-L-serine (16:0-18:1 PS) (POPS), 1 μM CaCl2), 50 mM Octylglucoside (OG) and 5 mM MgCl2. The reaction mixture was incubated at 25° C. for 1 hour. ADP-Glo Reagent (10 μL, 10 mM Mg added) provided by the kit was added to each well and incubated at 25° C. for 40 minutes. Then, 20 μL of Kinase Detection Reagent was added and incubated at 25° C. for 40 minutes. Luciferase activity of each well was measured via luminescence on an Envision plate reader (PerkinElmer).
Data were normalized based on maximum inhibition (50 μM of kinase inhibitor CU3) and no inhibition (DMSO) controls. Least squares curve fittings were performed using a four-parameter variable slope nonlinear regression model. IC50 was defined as the concentration of compound required to inhibit 50% of maximum activity. IC50 values from multiple experiments were averaged by geometric mean and the standard deviation was calculated.
A general note: ADP-Glo first removes unused ATP, then detects ADP through luciferase.

Assay [2] relates to Jurkat NFκB-luciferase cells. Briefly: Jurkat NFκB-Luciferase Assay. Format: cell-based. Particulars: Homo sapiens; Jurkat NFκB-luciferase cells activated with anti-CD3 antibody (OKT3), 2.5 hrs at 37° C.; geometric mean; read-out: DGK NFKb Luciferase EC50. Here is the method: The activity of compounds was tested in a cell based NFκB reporter assay. Jurkat cells that are stably expressing a luciferase reporter construct under the transcriptional control of a NFκB reporter element were activated with an anti-CD3 antibody and luciferase levels were measured with a bioluminescence readout. An increase in the levels of bioluminescence was indicative of enhanced T-cell activation following DGKα inhibition by the compound.
Flat-bottom polystyrene plates (384-well, tissue culture treated) were coated overnight at 4° C. with 20 ul/well of a solution of phosphate-buffered saline supplemented with 5 ug/ml anti-CD3 antibody (clone OKT3, Biolegend). The day after, the excess antibody was washed out five times with 100 ul/well of assay medium (RPMI supplemented with 10% fetal bovine serum) using a Biotek EL406 instrument and leaving 20 ul of residual volume in each well. Jurkat NFκB-luciferase cells (Promega #) were harvested and diluted to 1 million cells/ml in assay medium. Sixty nanoliters of test compound dissolved in DMSO at various concentrations were dispensed into 384-well v-bottom polypropylene plates (Greiner) using a Labcyte Echo instrument. Thirty microliters of medium containing the Jurkat NFκB-luciferase cells were then dispensed using a Biotek MicroFlo instrument in each well of the compound-containing plate. The medium/cell/compound mixture was mixed with a Bravo instrument and 20 ul/well of the mixture was transferred to the anti-CD3-coated plate. The assay mixture was then incubated for 2.5 hrs at 37° C. followed by equilibration at 25° C. for 30 min. Forty microliters of One-Glo Ex (Promega) was then added to the assay mixture and luciferase activity was read on a Envision plate reader 7 minutes later.
Bioluminescence data were normalized based on maximum enhancement (1 micromolar of compound) and on basal activation (DMSO) controls. Least squares curve fittings were performed using a four-parameter variable slope nonlinear regression model. EC50 is defined as the concentration of compound required to produce 50% of maximum NFκB luciferase signal. EC50 values from multiple experiments were averaged by geometric mean and the standard deviation was calculated.

Data on 24 molecules can be found in patent US11926628B2 (Gilead Sciences, Inc., priority 2021, dated 2024).

Structures are written as SMILES. pEC50, pIC50: −log10 of the molar value.

The pIC50 is the IC50 on a negative log10 scale, so that one unit is a factor of ten. As usually defined, the pEC50 is the negative decadic logarithm of the EC50, by convention in mol/L. As to `CN(c1cccc(C#CC(C)(C)O)c1)c1nc2nccn2c2cc(Cl)ccc12` [Example 1, 4-(3-((8-chloroimidazo[1,2-a]quinazolin-5-yl)(methyl)amino)phenyl)-2-methylbut-3-yn-2-ol], in assay [1], the negative-log IC50 (pIC50) was 6.78. Also, the negative logarithm of the EC50 (pEC50) in assay [2] was 7.85.
For `CN(c1cc(F)cc(C#CC2(C(F)(F)F)CC2)c1)c1nc2cncn2c2cc(Cl)ccc12` [Example 2, 8-chloro-N-[3-fluoro-5-[2-[1-(trifluoromethyl)cyclopropyl]ethynyl]phenyl]-N-methyl-imidazo[1,5-a]quinazolin-5-amine], in that order: 5.64 and 8.29.
For `CN(c1cc(F)cc(C#CC(C)(C)O)c1)c1nc2cncn2c2cc(Cl)ccc12` [Example 3, 4-[3-[(8-chloroimidazo[1,5-a]quinazolin-5-yl)-methyl-amino]-5-fluoro-phenyl]-2-methyl-but-3-yn-2-ol], in that order: 6.08 and 7.84.
Take `CN(c1cc(F)cc(-c2cnc(C3CC3)cn2)c1)c1nc2nnnn2c2cc(Cl)ccc12` [Example 4, 8-chloro-N-(3-(5-cyclopropylpyrazin-2-yl)-5-fluorophenyl)-N-methyltetrazolo[1,5-a]quinazolin-5-amine]: in assay [1], the pIC50 was 7.56. Further, in assay [2], the negative-log EC50 (pEC50) is 9.17.
In the case of `CN(c1cccc(-c2ccc(N3CCCS3(=O)=O)cc2)c1)c1nc2nnnn2c2cc(Cl)ccc12` [Example 5, 2-(3′-((8-chlorotetrazolo[1,5-a]quinazolin-5-yl)(methyl)amino)-[1,1′-biphenyl]-4-yl)isothiazolidine 1,1-dioxide], in assay [1], the pIC50 is 7.55. In assay [2], the negative logarithm of the EC50 (pEC50) was 8.38.
On the same counts, the results for `CN(c1cc(F)cc(-c2cnc(C3CC3)cn2)c1)c1nc2nnnn2c2ccc(F)cc12` [Example 6, N-(3-(5-cyclopropylpyrazin-2-yl)-5-fluorophenyl)-7-fluoro-N-methyltetrazolo[1,5-a]quinazolin-5-amine] are 7.80 and 8.88.
For `CCN(c1cc(F)cc(-c2ccc(N3CC4(CC4)CS3(=O)=O)nc2)c1)c1nc2nnnn2c2cc(Cl)ccc12` [Example 7], in that order: 6.93 and 8.13.
On the same counts, the results for `CN(c1cc(F)cc(-c2ccc(N3CC4(CC4)CS3(=O)=O)nc2)c1)c1nc2nnnn2c2ccc(F)cc12` [Example 8] are 7.51 and 8.33.
For `CN(c1cccc(-c2cnc(C3CC3)cn2)c1)c1nc2nnnn2c2cc(Cl)ccc12` [Example 9, 8-chloro-N-(3-(5-cyclopropylpyrazin-2-yl)phenyl)-N-methyltetrazolo[1,5-a]quinazolin-5-amine], the negative logarithm of the IC50 (pIC50) in assay [1] was 7.35. Also, the pEC50 in assay [2] is 8.76.
For `CN(c1cccc(C#CC(C)(C)O)c1)c1nc2nnnn2c2cc(Cl)ccc12` [Example 10, 4-(3-((8-chlorotetrazolo[1,5-a]quinazolin-5-yl)(methyl)amino)phenyl)-2-methylbut-3-yn-2-ol], in that order: 7.03 and 8.06.
`CN(c1cccc(Br)c1)c1nc2nnnn2c2cc(Cl)ccc12` [Example 11, N-(3-bromophenyl)-8-chloro-N-methyltetrazolo[1,5-a]quinazolin-5-amine]: the pIC50 in assay [1] was 6.37. Besides, in assay [2], the pEC50 was 7.44.
For `CN(c1cc(F)cc(C#CC(C)(C)C(F)F)c1)c1nc2nnnn2c2ccc(F)cc12` [Example 12], in that order: 6.97 and 8.60.
In the case of `CN(c1cc(F)cc(C#CC(C)(C)O)c1)c1nc2nnnn2c2ccc(F)cc12` [Example 13, 4-(3-fluoro-5-((7-fluorotetrazolo[1,5-a]quinazolin-5-yl)(methyl)amino)phenyl)-2-methylbut-3-yn-2-ol], in assay [1], the negative logarithm of the IC50 (pIC50) was 7.89. In addition, the pEC50 in assay [2] was 8.12.
On the same counts, the results for `CN(c1cc(F)cc(C#CC2(C(F)F)CC2)c1)c1nc2nnnn2c2ccc(F)cc12` [Example 14] are 7.18 and 8.81.
On the same counts, the results for `CN(c1cc(F)cc(C#CC(C)(C)C)c1)c1nc2nnnn2c2ccc(F)cc12` [Example 15] are 7.37 and 8.75.
For `CN(c1cc(F)cc(C#CC2(C(F)(F)F)CC2)c1)c1nc2nnnn2c2ccc(F)cc12` [Example 16], in that order: 7.65 and 8.49.
For the molecule `Cc1nnc2nc(N(CC(F)F)c3cc(F)cc(C#CC(C)(C)O)c3)c3ncccc3n12` [Example 17, 4-(3-((2,2-difluoroethyl)(1-methylpyrido[2,3-e][1,2,4]triazolo[4,3-a]pyrimidin-5-yl)amino)-5-fluorophenyl)-2-methylbut-3-yn-2-ol], in assay [1], the pIC50 is 7.11. For the same molecule, the pEC50 in assay [2] was 7.35.
Regarding `Cc1nnc2nc(N3CCCc4c(C#CC5(C(F)(F)F)CC5)cccc43)c3c(F)cncc3n12` [Example 41, 6-fluoro-1-methyl-5-(5-((1-(trifluoromethyl)cyclopropyl)ethynyl)-3,4-dihydroquinolin-1(2H)-yl)pyrido[4,3-e][1,2,4]triazolo[4,3-a]pyrimidine], the pEC50 in assay [2] is 8.62.
On the same count and under the same terms, as for `CN(c1cccc(C#CC(C)(C)C)c1)c1nc2nncn2c2cnccc12` [Example 60], the figure is 8.17.
For `Cc1nnc2nc(N3CCCCc4c(C#CC(C)(C)C#N)cccc43)c3c(F)cncc3n12` [Example 64, 4-(1-(6-fluoro-1-methylpyrido[4,3-e][1,2,4]triazolo[4,3-a]pyrimidin-5-yl)-2,3,4,5-tetrahydro-1H-benzo[b]azepin-6-yl)-2,2-dimethylbut-3-ynenitrile], the negative logarithm of the EC50 (pEC50) in assay [2] is 8.22.
On the same count and under the same terms, to `CN(C)c1ccc2c(N(C)c3cccc(C#CC(C)(C)C)c3)nc3nncn3c2n1` [Example 110, N^5-(3-(3,3-dimethylbut-1-yn-1-yl)phenyl)-N^2,N^2,N^5-trimethylpyrido[3,2-e][1,2,4]triazolo[4,3-a]pyrimidine-2,5-diamine] belongs 8.00.
Same read-out and setting: to `COc1ccc(-c2cccc(N(C)c3nc4nncn4c4nc(N(C)C)ccc34)c2)cn1` [Example 111, N^5-(3-(6-methoxypyridin-3-yl)phenyl)-N^2,N^2,N^5-trimethylpyrido[3,2-e][1,2,4]triazolo[4,3-a]pyrimidine-2,5-diamine] belongs 7.70; to `CN(C)c1ccc2c(N(C)c3cccc(-c4ccc(C5CC5)cc4)c3)nc3nncn3c2n1` [Example 112, N^5-(4′-cyclopropyl-[1,1′-biphenyl]-3-yl)-N^2,N^2,N^5-trimethylpyrido[3,2-e][1,2,4]triazolo[4,3-a]pyrimidine-2,5-diamine], 9.01; to `CCOc1ccc2c(N(C)c3cccc(-c4ccc(C5CC5)cc4)c3)nc3nncn3c2n1` [Example 113, N-(4′-cyclopropyl-[1,1′-biphenyl]-3-yl)-2-ethoxy-N-methylpyrido[3,2-e][1,2,4]triazolo[4,3-a]pyrimidin-5-amine], 7.17.
